What was measured:
Format in all cases: in vivo, Wistar-Kyoto (WKY) rats
CCI rats [1] = assay: Thermal hyperalgesia in CCI (sciatic nerve ligation) neuropathic pain rats; details: 15 mg/kg DM or 15 mg/kg equivalent of DM, intraperitoneally once daily for a week from day 8 after CCI; examined on day 15 after CCI; compared with corresponding baseline
Experimental: (§1) Adult male WKY rats weighing 200-250 g. Rats were housed individually in each cage and the experiments started at least three days after their arrival. The surgical procedure was performed under pentobarbital anesthesia (50 mg/kg, intraperitoneally). CCI rats were produced by loosely ligating the common sciatic nerve on one side according to the method. Briefly, the right sciatic nerve was exposed in themid-thigh and separated from the adjacent tissue. Four loose ligatures using 4-0 chromic gut sutures were made around the dissected nerve with a 1.0-1.5 mm interval between each pair of ligatures. The skin wound was closed using stainless steel pins. In sham rats, the same surgical procedure was followed except for nerve ligation. DM and formula I (1-1) were diluted in 10% DMSO. The MDSO (10%) was also used for vehicle control.
(§2) The drugs DM (15 mg/kg for DM) or the formula I (1-1) (15 mg/kg equivalent of DM) was given intraperitoneally once daily for a week, beginning in the second week after CCI (i.e., day 8 after CCI).

CCI rats [2] = assay: Motor deficits or sedation judged by gait and overall appearance; details: 15 mg/kg DM or equivalent, intraperitoneally once daily for a week
Experimental: as §2

CCI rats [3] = assay: Mechanical allodynia in CCI (sciatic nerve ligation) neuropathic pain rats; details: 15 mg/kg DM or 15 mg/kg equivalent of DM, intraperitoneally once daily for a week from day 8 after CCI; examined at end of one-week treatment; compared with corresponding baseline
Experimental: as §1, §2

Compound | reducing thermal hyperalgesia (CCI rats [1]) | motor deficits or sedation (CCI rats [2]) | reducing mechanical allodynia (CCI rats [3])
COc1ccc2c(c1)[C@]13CCCC[C@@H]1[C@H](C2)N(C)CC3 [DM, Dextromethorphan] | only marginally effective | no motor deficits or sedation | effective only in reducing mechanical allodynia
CN1CC[C@@]23CCCC[C@@H]2[C@@H]1Cc1ccc(OC(=O)CCCCCC[C@]2(C)CCSS2)cc13 [formula I (1-1)] | reduced thermal hyperalgesia | no motor deficits or sedation | significantly improved mechanical allodynia

— patent US9242939B2, “Compositions and methods for the treatment of respiratory disorders” (CELLIX BIO PRIVATE LIMITED, priority 2012, dated 2016)
